Tests used:
Type in all cases: in vivo
kochia (Kochia scoparia) [1] = assay: Test A preemergence
Excerpt: (§1) Seeds of plant species selected from barnyardgrass (Echinochloa crus-galli), kochia (Kochia scoparia), ragweed (common ragweed, Ambrosia elatior), Italian ryegrass (Lolium multiflorum), large (Lg) crabgrass (Digitaria sanguinalis), giant foxtail (Setaria faberii), morningglory (Ipomoea spp.), pigweed (Amaranthus retroflexus), velvetleaf (Abutilon theophrasti), wheat (Triticum aestivum), and corn (Zea mays) were planted into a blend of loam soil and sand and treated preemergence with a directed soil spray using test chemicals formulated in a non-phytotoxic solvent mixture which included a surfactant.
(§2) At the same time, plants selected from these crop and weed species and also blackgrass (Alopecurus myosuroides), and galium (catchweed bedstraw, Galium aparine) were planted in pots containing the same blend of loam soil and sand and treated with postemergence applications of test chemicals formulated in the same manner. Plants ranged in height from 2 to 10 cm and were in the one- to two-leaf stage for the postemergence treatment. Treated plants and untreated controls were maintained in a greenhouse for approximately 10 days, after which time all treated plants were compared to untreated controls and visually evaluated for injury. Plant response ratings, summarized in Table A, are based on a 0 to 100 scale where 0 is no effect and 100 is complete control. A dash (-) response means no test result.

[2] = tested on: Italian ryegrass (Lolium multiflorum); assay: Test A preemergence
Excerpt: as §1, §2

[3] = tested on: pigweed (Amaranthus retroflexus); assay: Test A preemergence
Excerpt: as §1, §2

[4] = tested on: ragweed (common ragweed, Ambrosia elatior); assay: Test A preemergence
Excerpt: as §1, §2

[5] = tested on: giant foxtail (Setaria faberii); assay: Test A preemergence
Excerpt: as §1, §2

[6] = tested on: barnyardgrass (Echinochloa crus-galli); assay: Test A preemergence
Excerpt: as §1, §2

kochia (Kochia scoparia) [7] = assay: Test A postemergence; settings: 0 to 100 scale
Excerpt: as §1, §2

[8] = tested on: blackgrass (Alopecurus myosuroides); assay: Test A postemergence; settings: 0 to 100 scale
Excerpt: as §1, §2

[9] = tested on: galium (catchweed bedstraw, Galium aparine); assay: Test A postemergence; settings: 0 to 100 scale
Excerpt: as §1, §2

[10] = tested on: Italian ryegrass (Lolium multiflorum); assay: Test A postemergence; settings: 0 to 100 scale
Excerpt: as §1, §2

[11] = tested on: wheat (Triticum aestivum); assay: Test A postemergence; settings: 0 to 100 scale
Excerpt: as §1, §2

[12] = tested on: pigweed (Amaranthus retroflexus); assay: Test A postemergence; settings: 0 to 100 scale
Excerpt: as §1, §2

[13] = tested on: ragweed (common ragweed, Ambrosia elatior); assay: Test A postemergence; settings: 0 to 100 scale
Excerpt: as §1, §2

[14] = tested on: giant foxtail (Setaria faberii); assay: Test A postemergence; settings: 0 to 100 scale
Excerpt: as §1, §2

[15] = tested on: barnyardgrass (Echinochloa crus-galli); assay: Test A postemergence; settings: 0 to 100 scale
Excerpt: as §1, §2

corn (Zea mays) = assay: Test A postemergence; settings: 0 to 100 scale
Excerpt: as §1, §2

[16] = 31 g ai/ha, 0 to 100 scale (0 no effect, 100 complete control)

## FC(F)(F)c1cnc(Oc2c(Br)cccc2Oc2ncc(Cl)cn2)s1 [Compound 6]
Kochia (Kochia scoparia) [1]; [16]
  Kochia plant response rating: 30
Kochia (Kochia scoparia) [1]; 125 g ai/ha, 0 to 100 scale
  Plant response rating, Kochia: 80
[2]; [16]
  Ryegrass, Italian plant response rating: 0
[2]; 125 g ai/ha, 0 to 100 scale
  Plant response rating, Ryegrass, Italian: 20
[3]; [16]
  Pigweed plant response rating: 30
[3]; 125 g ai/ha, 0 to 100 scale
  Plant response rating, Pigweed: 90
[4]; [16]
  Ragweed plant response rating: 0
[4]; 125 g ai/ha, 0 to 100 scale
  Plant response rating, Ragweed: 0
[5]; [16]
  Foxtail, Giant plant response rating: 60
[5]; 125 g ai/ha, 0 to 100 scale
  Plant response rating, Foxtail, Giant: 100
[6]; [16]
  Barnyardgrass plant response rating: 20
[6]; 125 g ai/ha, 0 to 100 scale
  Plant response rating, Barnyardgrass: 70
Kochia (Kochia scoparia) [7]; 31 g ai/ha
  Plant response rating, Kochia: 70
Kochia (Kochia scoparia) [7]; 125 g ai/ha
  Plant response rating, Kochia: 100
[8]; 31 g ai/ha
  Plant response rating, Blackgrass: 10
[8]; 125 g ai/ha
  Plant response rating, Blackgrass: 40
[9]; 31 g ai/ha
  Plant response rating, Galium: 70
[9]; 125 g ai/ha
  Plant response rating, Galium: 100
[10]; 31 g ai/ha
  Plant response rating, Ryegrass, Italian: 0
[10]; 125 g ai/ha
  Plant response rating, Ryegrass, Italian: 50
[11]; 31 g ai/ha
  Plant response rating, Wheat: 0
[11]; 125 g ai/ha
  Plant response rating, Wheat: 10
[12]; 31 g ai/ha
  Plant response rating, Pigweed: 50
[12]; 125 g ai/ha
  Plant response rating, Pigweed: 90
[13]; 31 g ai/ha
  Plant response rating, Ragweed: 0
[13]; 125 g ai/ha
  Plant response rating, Ragweed: 20
[14]; 31 g ai/ha
  Plant response rating, Foxtail, Giant: 10
[14]; 125 g ai/ha
  Plant response rating, Foxtail, Giant: 60
[15]; 31 g ai/ha
  Plant response rating, Barnyardgrass: 10
[15]; 125 g ai/ha
  Plant response rating, Barnyardgrass: 100
Corn (Zea mays); 31 g ai/ha
  Plant response rating, Corn: 0
Corn (Zea mays); 125 g ai/ha
  Plant response rating, Corn: 10

## N#Cc1cccc(Oc2ncc(Br)cn2)c1Oc1cccnc1 [Compound 7]
Kochia (Kochia scoparia) [1]; Bassia scoparia, pre-emergence, 240 h, 31 g ai/ha, 0 to 100 scale (0 no effect, 100 complete control), read-out: Kochia plant response rating
  pest or weed control at 31 g/ha: 0%
Kochia (Kochia scoparia) [1]; Bassia scoparia, pre-emergence, 240 h, 125 g ai/ha, 0 to 100 scale, read-out: Plant response rating, Kochia
  pest or weed control at 125 g/ha: 0%
[2]; Lolium multiflorum, pre-emergence, 240 h, 31 g ai/ha, 0 to 100 scale (0 no effect, 100 complete control), read-out: Ryegrass, Italian plant response rating
  pest or weed control at 31 g/ha: 0%
[2]; Lolium multiflorum, pre-emergence, 240 h, 125 g ai/ha, 0 to 100 scale, read-out: Plant response rating, Ryegrass, Italian
  pest or weed control at 125 g/ha: 0%
[3]; Amaranthus retroflexus, pre-emergence, 240 h, 31 g ai/ha, 0 to 100 scale (0 no effect, 100 complete control), read-out: Pigweed plant response rating
  pest or weed control at 31 g/ha: 0%
[3]; Amaranthus retroflexus, pre-emergence, 240 h, 125 g ai/ha, 0 to 100 scale, read-out: Plant response rating, Pigweed
  pest or weed control at 125 g/ha: 0%
[4]; Ambrosia artemisiifolia, pre-emergence, 240 h, 31 g ai/ha, 0 to 100 scale (0 no effect, 100 complete control), read-out: Ragweed plant response rating
  pest or weed control at 31 g/ha: 0%
[4]; Ambrosia artemisiifolia, pre-emergence, 240 h, 125 g ai/ha, 0 to 100 scale, read-out: Plant response rating, Ragweed
  pest or weed control at 125 g/ha: 0%
[5]; Setaria faberi, pre-emergence, 240 h, 31 g ai/ha, 0 to 100 scale (0 no effect, 100 complete control), read-out: Foxtail, Giant plant response rating
  pest or weed control at 31 g/ha: 0%
[5]; Setaria faberi, pre-emergence, 240 h, 125 g ai/ha, 0 to 100 scale, read-out: Plant response rating, Foxtail, Giant
  pest or weed control at 125 g/ha: 0%
[6]; Echinochloa crus-galli, pre-emergence, 240 h, 31 g ai/ha, 0 to 100 scale (0 no effect, 100 complete control), read-out: Barnyardgrass plant response rating
  pest or weed control at 31 g/ha: 0%
[6]; Echinochloa crus-galli, pre-emergence, 240 h, 125 g ai/ha, 0 to 100 scale, read-out: Plant response rating, Barnyardgrass
  pest or weed control at 125 g/ha: 0%
Kochia (Kochia scoparia) [7]; Bassia scoparia, post-emergence, 240 h, 31 g ai/ha, read-out: Plant response rating, Kochia
  pest or weed control at 31 g/ha: 0%
Kochia (Kochia scoparia) [7]; Bassia scoparia, post-emergence, 240 h, 125 g ai/ha, read-out: Plant response rating, Kochia
  pest or weed control at 125 g/ha: 10%
[8]; Alopecurus myosuroides, post-emergence, 240 h, 31 g ai/ha, read-out: Plant response rating, Blackgrass
  pest or weed control at 31 g/ha: 0%
[8]; Alopecurus myosuroides, post-emergence, 240 h, 125 g ai/ha, read-out: Plant response rating, Blackgrass
  pest or weed control at 125 g/ha: 0%
[9]; Galium, post-emergence, 240 h, 31 g ai/ha, read-out: Plant response rating, Galium
  pest or weed control at 31 g/ha: 10%
[9]; Galium, post-emergence, 240 h, 125 g ai/ha, read-out: Plant response rating, Galium
  pest or weed control at 125 g/ha: 10%
[10]; Lolium multiflorum, post-emergence, 240 h, 31 g ai/ha, read-out: Plant response rating, Ryegrass, Italian
  pest or weed control at 31 g/ha: 0%
[10]; Lolium multiflorum, post-emergence, 240 h, 125 g ai/ha, read-out: Plant response rating, Ryegrass, Italian
  pest or weed control at 125 g/ha: 0%
[11]; Triticum aestivum, post-emergence, 240 h, 31 g ai/ha, read-out: Plant response rating, Wheat
  plant injury at 31 g/ha: 0%
[11]; Triticum aestivum, post-emergence, 240 h, 125 g ai/ha, read-out: Plant response rating, Wheat
  plant injury at 125 g/ha: 0%
[12]; Amaranthus retroflexus, post-emergence, 240 h, 31 g ai/ha, read-out: Plant response rating, Pigweed
  pest or weed control at 31 g/ha: 10%
[12]; Amaranthus retroflexus, post-emergence, 240 h, 125 g ai/ha, read-out: Plant response rating, Pigweed
  pest or weed control at 125 g/ha: 20%
[13]; Ambrosia artemisiifolia, post-emergence, 240 h, 31 g ai/ha, read-out: Plant response rating, Ragweed
  pest or weed control at 31 g/ha: 0%
[13]; Ambrosia artemisiifolia, post-emergence, 240 h, 125 g ai/ha, read-out: Plant response rating, Ragweed
  pest or weed control at 125 g/ha: 0%
[14]; Setaria faberi, post-emergence, 240 h, 31 g ai/ha, read-out: Plant response rating, Foxtail, Giant
  pest or weed control at 31 g/ha: 0%
[14]; Setaria faberi, post-emergence, 240 h, 125 g ai/ha, read-out: Plant response rating, Foxtail, Giant
  pest or weed control at 125 g/ha: 0%
[15]; Echinochloa crus-galli, post-emergence, 240 h, 31 g ai/ha, read-out: Plant response rating, Barnyardgrass
  pest or weed control at 31 g/ha: 0%
[15]; Echinochloa crus-galli, post-emergence, 240 h, 125 g ai/ha, read-out: Plant response rating, Barnyardgrass
  pest or weed control at 125 g/ha: 0%
Corn (Zea mays); Zea mays, post-emergence, 240 h, 31 g ai/ha
  Corn plant response rating (crop injury, 0 = no effect, 100 = complete kill) at 31 g/ha: 0%
Corn (Zea mays); Zea mays, post-emergence, 240 h, 125 g ai/ha
  Corn plant response rating (crop injury, 0 = no effect, 100 = complete kill) at 125 g/ha: 10%
